From patent US7405303B2, “Substituted quinoline compounds for use as selective estrogen receptor modulator” (SmithKline Beecham Corporation, priority 2004, dated 2008)
Read-outs that look alike come from different tables or passages of the source.

What was measured:
[1] = target: T1, GST-hERα (ligand binding domain) (Homo sapiens, UniProt P03372); test: SPA competition binding assay, ERα; conditions: for Avg. ER α pKi: SPA competition binding vs 1 nM [3H]estradiol, apparent Ki, n = 2; for Ki: read-out: Avg. ER α pKi (converted)
T1 construct: made in house; host or cells: E. coli BL21 (DE3)pLYS S
T1 sequence (P03372 311-547 limits assumed): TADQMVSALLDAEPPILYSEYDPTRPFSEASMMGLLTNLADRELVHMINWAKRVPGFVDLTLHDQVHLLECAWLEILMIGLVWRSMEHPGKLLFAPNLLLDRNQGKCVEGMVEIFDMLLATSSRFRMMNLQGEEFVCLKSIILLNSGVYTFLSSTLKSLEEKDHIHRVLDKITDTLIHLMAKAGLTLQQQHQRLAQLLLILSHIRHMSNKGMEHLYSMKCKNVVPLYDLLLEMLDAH
Protocol: (§1) The ligand binding domain of both ERα and ERβ were sub-cloned into pGEX-2T vector which had been modified to contain KpnI and BamHI restriction sites in the multiple cloning region. GST-hERα and GST-hERβ proteins were made by transforming BL21 (DE3)pLYS S competent cells with the appropriate expression plasmid. […] The cells were collected by centrifugation and resuspended in lysis buffer (50 mM Tris pH 7.9; 250 mM KCl; 1% Triton X-100; 10 mM DTT; 1 mM PMSF). The lysate was then placed on dry ice until completely frozen The frozen lysate was thawed and centrifuged 20 min at 4° C. at 80K rpm in a TLA 100.2 rotor in a Beckman TL-100 ultracentrifuge. The supernatant was retained and glycerol was added to a final concentration of 10%. The protein content of the supernatant was quantitated using the BioRad Protein Assay Reagent. The protein was then stored at −80° C. until used in the binding assay.
(§2) Polylysine coated Yttrium Silicate SPA beads (Amersham #RPNQ 0010) are resuspended in assay buffer [10 mM potassium phosphate buffer pH 7.0 containing 2 mM EDTA, 50 mM NaCl, 1 mM DTT, 2 mM CHAPS, 10% glycerol] to a concentration of 1 g/60 ml. 30 ul (0.5 mg) of the SPA beads are then added to each well of a Packard OptiPlate (Packard 6005190, Packard Instruments, Meriden, Conn.). […] [2,4,6,7,16,17-3H(N)]-Estradiol is added as a 30 ul aliquot to give a final assay concentration of 1 nM. […] The plates are shaken vigorously for two hours then counted on a Packard TopCount using the protocol for counting tritium yttrium silicate SPA beads. Data analysis was done by standard methods. % Bound was calculated for each concentration of each test compound using the equation % Bound=100*((Test−NS)/(T−NS)). % Bound was plotted vs concentration and curve fitting was accomplished using non-linear regression.

[2] = target: T2, GST-hERβ (ligand binding domain) (Homo sapiens, UniProt Q92731); test: SPA competition binding assay, ERβ; conditions: for Avg. ER β pKi: SPA competition binding vs 1 nM [3H]estradiol, apparent Ki, n = 2
T2 construct: made in house; host or cells: E. coli BL21 (DE3)pLYS S
Protocol: as §1, with “The lysate was then placed on dry ice until completely frozen The frozen lysate was thawed and centrifuged 20 min at 4° C. at 80K rpm in a TLA 100.2 rotor in a Beckman TL-100 ultracentrifuge.” left out
as §2, with “ml.” for “ml. 30 ul (0.5 mg) of the SPA beads are then added to each well of a Packard OptiPlate (Packard 6005190, Packard Instruments, Meriden, Conn.).”

T2 sequence (Q92731 264-498 limits assumed): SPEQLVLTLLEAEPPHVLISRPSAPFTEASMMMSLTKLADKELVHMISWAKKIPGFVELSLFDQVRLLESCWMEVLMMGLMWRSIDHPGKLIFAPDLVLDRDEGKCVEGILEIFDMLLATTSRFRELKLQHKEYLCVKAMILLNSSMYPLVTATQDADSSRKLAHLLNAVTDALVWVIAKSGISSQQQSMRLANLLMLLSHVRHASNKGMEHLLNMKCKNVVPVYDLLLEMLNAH

Row | Compound | Avg. ER α pKi [1] | Avg. ER β pKi [2] | Ki [1] | Ki [2] | Ki ([2]; read-out: Avg. ER β pKi (converted))
1 | 4-[(7-Hydroxy-2-ethyl-3-(3-trifluoromethylphenyl)-4-quinolinyl)oxyphenyl]-2-propenoic acid [Example 8] | 7.05 | 6.57 | – | – | –
2 | 4-[(7-Hydroxy-2-ethyl-3-(3-trifluoromethylphenyl]-4-quinolinyl)oxyphenyl]-2-propeno-N-isopropylamide [Example 7] | 7.51 | 7.26 | – | – | –
3 | 4-[(7-Hydroxy-2-ethyl-3-phenyl-4-quinolinyl)oxyphenyl]-2-propeno-N,N-dimethylamide [Example 4] | 7.95 | 7.74 | – | – | –
4 | 4-[(7-Hydroxy-2-ethyl-3-phenyl-4-quinolinyl)oxyphenyl]-2-propeno-N-isopropylamide [Example 3] | 8.01 | 7.76 | – | – | –
5 | 4-[(7-Hydroxy-2-ethyl-3-phenyl-4-quinolinyl)oxyphenyl]-2-propeno-N-piperidineamide [Example 5] | 7.55 | 7.64 | – | – | –
6 | 4-[(7-Hydroxy-2-ethyl-3-phenyl-4-quinolinyl)oxyphenyl]-2-propenonitrile [Example 6] | 7.59 | 7.50 | – | – | –
7 | 4-[(7-Hydroxy-2-phenyl-3-phenyl-4-quinolinyl)oxyphenyl]-2-propenoic acid [Example 9] | 5.53 | 6.17 | – | – | –
8 | CCc1nc2cc(O)ccc2c(Oc2ccc(/C=C/C(N)=O)cc2)c1-c1ccccc1 [Example 2, 4-[(7-Hydroxy-2-ethyl-3-phenyl-4-quinolinyl)oxyphenyl]-2-propenoamide] | – | – | 14.8 nM | 28.2 nM | –
9 | CCc1nc2cc(O)ccc2c(Oc2cccc(/C=C/C(=O)O)c2)c1-c1ccccc1 [Example 10, 3-[(7-Hydroxy-2-ethyl-3-phenyl-4-quinolinyl)oxyphenyl]-2-propenoic acid] | – | – | 1550 nM | – | –
10 | CCc1nc2cc(O)ccc2c(Sc2ccc(/C=C/C(N)=O)cc2)c1-c1ccccc1 [Example 11, 4-[(7-Hydroxy-2-ethyl-3-phenyl-4-quinolinyl)thiophenyl]-2-propenoamide] | – | – | 3160 nM | – | 1820 nM
